Test results reported in patent US8530462B2, “Indole modulators of S1P receptors” (Allergan, Inc., priority 2010, dated 2013).

Molecular target: T1, human S1P1 receptor (Homo sapiens, UniProt P21453)
T1 construct: expressed in transfected cells; membranes were used
Experiment: GTP γ35S binding assay, S1P1 receptor activity
Type: biochemical
Details: for % stimulation: S1P1 receptor, agonist-induced stimulation; for EC50: membranes of cells stably expressing the S1P1 receptor, test compounds 0.08 to 5,000 nM
Experimental: The S1P1 activity of the compounds according to the invention, were tested using the GTP γ^35S binding assay. The compounds were assessed for their ability to activate or block activation of the human S1P1 receptor in cells stably expressing the S1P1 receptor.
GTP γ^35S binding was measured in the medium containing (mM) HEPES 25, pH 7.4, MgCl2 10, NaCl 100, dithitothreitol 0.5, digitonin 0.003%, 0.2 nM GTP γ^35S, and 5 μg membrane protein in a volume of 150 μl. Test compounds were included in the concentration range from 0.08 to 5,000 nM unless indicated otherwise. Membranes were incubated with 100 μM 5′-adenylylimmidodiphosphate for 30 min, and subsequently with 10 μM GDP for 10 min on ice. Drug solutions and membrane were mixed, and then reactions were initiated by adding GTP γ^35S and continued for 30 min at 25° C. Reaction mixtures were filtered over Whatman GF/B filters under vacuum, and washed three times with 3 mL of ice-cold buffer (HEPES 25, pH7.4, MgCl2 10 and NaCl 100). Filters were dried and mixed with scintillant, and counted for ^35S activity using a β-counter. Agonist-induced GTP γ^35S binding was obtained by subtracting that in the absence of agonist. Binding data were analyzed using a non-linear regression method. In case of antagonist assay, the reaction mixture contained 10 nM S1P in the presence of test antagonist at concentrations ranging from 0.08 to 5000 nM.
Activity potency: S1P1 receptor from GTP γ^35S: nM, (EC50), % stimulation, […]

T1 sequence (P21453 whole entry): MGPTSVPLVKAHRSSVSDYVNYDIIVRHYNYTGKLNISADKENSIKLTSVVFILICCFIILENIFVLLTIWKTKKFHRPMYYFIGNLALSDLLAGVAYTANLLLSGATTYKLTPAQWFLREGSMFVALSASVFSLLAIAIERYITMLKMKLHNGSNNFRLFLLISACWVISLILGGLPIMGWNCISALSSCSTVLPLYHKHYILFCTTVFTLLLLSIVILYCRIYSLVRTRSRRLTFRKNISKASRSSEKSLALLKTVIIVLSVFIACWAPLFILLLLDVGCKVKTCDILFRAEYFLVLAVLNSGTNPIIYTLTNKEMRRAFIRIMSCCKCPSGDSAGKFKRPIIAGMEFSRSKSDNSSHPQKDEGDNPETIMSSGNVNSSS

| Compound | % stimulation | EC50 |
| --- | --- | --- |
| Cc1ccc(Cn2cc(-c3nc(-c4ccc(CN5CC(C(=O)O)C5)cc4)no3)c3cc(F)ccc32)cc1C [Compound 2, 1-(4-{5-[1-(3,4-dimethylbenzyl)-5-fluoro-1H-indol-3-yl]-1,2,4-oxadiazol-3-yl}benzyl)azetidine-3-carboxylic acid] | 94% | 737 nM |
| COc1ccc2c(c1)c(-c1nc(-c3ccc(CN4CC(C(=O)O)C4)cc3)no1)c(C)n2Cc1ccc(C)c(C)c1 [Compound 3, 1-(4-{5-[1-(3,4-dimethylbenzyl)-5-methoxy-2-methyl-1H-indol-3-yl]-1,2,4-oxadiazol-3-yl}benzyl)azetidine-3-carboxylic acid] | 82% | 1560 nM |
| O=C(O)C1CN(Cc2ccc(-c3noc(-c4cn(Cc5ccccc5)c5ccccc45)n3)cc2)C1 [Compound 8, 1-{4-[5-(1-benzyl-1H-indol-3-yl)-1,2,4-oxadiazol-3-yl]benzyl}azetidine-3-carboxylic acid] | 66% | 494 nM |
| Cc1ccc(Cn2c(C)c(-c3nc(-c4ccc(CN5CC(C(=O)O)C5)cc4)no3)c3cc(F)ccc32)cc1C [Compound 9, 1-(4-{5-[1-(3,4-dimethylbenzyl)-5-fluoro-2-methyl-1H-indol-3-yl]-1,2,4-oxadiazol-3-yl}benzyl)azetidine-3-carboxylic acid] | 85% | 1000 nM |
| CNc1ncccc1-c1noc(-c2cn(Cc3ccccc3)c3ccccc23)n1 [Compound 10, 3-[5-(1-benzyl-1H-indol-3-yl)-1,2,4-oxadiazol-3-yl]-N-methylpyridin-2-amine] | 88% | 703 nM |
| CNc1ncccc1-c1noc(-c2cn(Cc3ccc(C)c(C)c3)c3ccc(F)cc23)n1 [Compound 11, 3-{5-[1-(3,4-dimethylbenzyl)-5-fluoro-1H-indol-3-yl]-1,2,4-oxadiazol-3-yl}-N-methylpyridin-2-amine] | – | 569 nM |
| Cc1ccc2c(c1)c(-c1nc(-c3ccc(CNCCC(=O)O)cc3)no1)cn2Cc1ccc(C)c(C)c1 [Compound 13, 3-[(4-{5-[1-(3,4-dimethylbenzyl)-5-methyl-1H-indol-3-yl]-1,2,4-oxadiazol-3-yl}benzyl)amino]propanoic acid] | 82% | 351 nM |
| Cc1ccc(Cn2cc(-c3nc(-c4ccc(CNCCC(=O)O)cc4)no3)c3cc(F)ccc32)cc1C [Compound 14, 3-[(4-{5-[1-(3,4-dimethylbenzyl)-5-fluoro-1H-indol-3-yl]-1,2,4-oxadiazol-3-yl}benzyl)amino]propanoic acid] | 93% | 1490 nM |
| O=C(O)CCCCNCc1ccc(-c2noc(-c3cn(Cc4ccccc4)c4ccccc34)n2)cc1 [Compound 15, 5-({4-[5-(1-benzyl-1H-indol-3-yl)-1,2,4-oxadiazol-3-yl]benzyl}amino)pentanoic acid] | 108% | 1010 nM |
| Cc1ccc(Cn2cc(-c3nc(-c4ccc(CNCCC(=O)O)cc4)no3)c3ccccc32)cc1C [Compound 16, 3-[(4-{5-[1-(3,4-dimethylbenzyl)-1H-indol-3-yl]-1,2,4-oxadiazol-3-yl}benzyl)amino]propanoic acid] | 81% | 1440 nM |
| O=C(O)CCNCc1ccc(-c2noc(-c3cn(Cc4ccccc4)c4ccc(F)cc34)n2)cc1 [Compound 17, 3-({4-[5-(1-benzyl-5-fluoro-1H-indol-3-yl)-1,2,4-oxadiazol-3-yl]benzyl}amino)propanoic acid] | 100% | 129 nM |

More lines, in order of falling EC50, values ahead:

| % stimulation | EC50 | Compound |
| --- | --- | --- |
| 86% | 1160 nM | c1ccc(Cn2cc(-c3nc(-c4ccc(Cn5ccnc5)cc4)no3)c3ccccc32)cc1 [Compound 6, 1-benzyl-3-{3-[4-(1H-imidazol-1-ylmethyl)phenyl]-1,2,4-oxadiazol-5-yl}-1H-indole] |
| 92% | 1020 nM | Cc1ccc(Cn2cc(-c3nc(-c4ccc(CN5CC(C(=O)O)C5)cc4)no3)c3ccccc32)cc1C [Compound 4, 1-(4-{5-[1-(3,4-dimethylbenzyl)-1H-indol-3-yl]-1,2,4-oxadiazol-3-yl}benzyl)azetidine-3-carboxylic acid] |
| 92% | 426 nM | Cc1ccc2c(c1)c(-c1nc(-c3ccc(CN4CC(C(=O)O)C4)cc3)no1)cn2Cc1ccc(C)c(C)c1 [Compound 1, 1-(4-{5-[1-(3,4-dimethylbenzyl)-5-methyl-1H-indol-3-yl]-1,2,4-oxadiazol-3-yl}benzyl)azetidine-3-carboxylic acid] |
| – | 394 nM | O=C(O)CCNCc1ccc(-c2noc(-c3cn(Cc4ccccc4)c4ccccc34)n2)cc1 [Compound 12, 3-({4-[5-(1-benzyl-1H-indol-3-yl)-1,2,4-oxadiazol-3-yl]benzyl}amino)propanoic acid] |
| 91% | 189 nM | O=C(O)C1CN(Cc2ccc(-c3noc(-c4cn(Cc5ccccc5)c5ccc(F)cc45)n3)cc2)C1 [Compound 5, 1-{4-[5-(1-benzyl-5-fluoro-1H-indol-3-yl)-1,2,4-oxadiazol-3-yl]benzyl}azetidine-3-carboxylic acid] |
